Assay results published in the supplement of paper PMC5908809.

Tests used:
[1] = tested on: normal NK cells expanded with K562-aAPC; experiment: percent inhibition of viability; higher = more inhibition; conditions: 72 h, IL-2 2.5 ng/mL
Procedure: (§1)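 Drug sensitivity and resistance testing on K562-aAPC-expanded normal NK cells: 5 concentrations (10-fold steps over a 10,000-fold range), 72 h at 37 °C, viability by CellTiter-Glo normalised to DMSO and benzethonium chloride controls; DSS from the fitted curve.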

[2] = tested on: normal primary NK cells, pool 2 (3 donors) (IL-2 2.5 ng/mL); experiment: drug sensitivity score (DSS) (DSS units); higher = more sensitive; extreme values may be limits of the assay; conditions: 72 h
KAI3 (IL-2 2.5 ng/mL) [3] = experiment: as above; conditions: 72 h
YT (IL-2 2.5 ng/mL) [4] = experiment: as above; conditions: 72 h
KHYG-1 (IL-2 2.5 ng/mL) [5] = experiment: as above; conditions: 72 h
DERL-7 (IL-2 2.5 ng/mL) [6] = experiment: as above; conditions: 72 h
NK-92 (IL-2 2.5 ng/mL) [7] = experiment: as above; conditions: 72 h
NK-YS (IL-2 2.5 ng/mL) [8] = experiment: as above; conditions: 72 h
IMC-1 (IL-2 20 ng/mL) [9] = experiment: as above; conditions: 72 h
NKL (IL-2 2.5 ng/mL) [10] = experiment: as above; conditions: 72 h
SNK-6 (IL-2 2.5 ng/mL) [11] = experiment: as above; conditions: 72 h
[12] = tested on: normal primary NK cells, pool 3 (3 donors) (IL-2 2.5 ng/mL); experiment: as above; conditions: 72 h
[13] = tested on: normal primary NK cells, pool 1 (3 donors), resting (IL-2 0 ng/mL); experiment: as above; conditions: 72 h
[14] = tested on: normal primary NK cells, pool 1 (3 donors) (IL-2 2.5 ng/mL); experiment: as above; conditions: 72 h
[15] = tested on: normal NK cells expanded with K562-aAPC; experiment: as above; conditions: 72 h; IL-2 2.5 ng/mL
Procedure: as §1

[16] = tested on: normal primary NK cells, pool 2 (3 donors) (IL-2 2.5 ng/mL); experiment: percent inhibition of viability; higher = more inhibition; conditions: 72 h
KAI3 (IL-2 2.5 ng/mL) [17] = experiment: as above; conditions: 72 h
YT (IL-2 2.5 ng/mL) [18] = experiment: as above; conditions: 72 h
KHYG-1 (IL-2 2.5 ng/mL) [19] = experiment: as above; conditions: 72 h
DERL-7 (IL-2 2.5 ng/mL) [20] = experiment: as above; conditions: 72 h
NK-92 (IL-2 2.5 ng/mL) [21] = experiment: as above; conditions: 72 h
NK-YS (IL-2 2.5 ng/mL) [22] = experiment: as above; conditions: 72 h
IMC-1 (IL-2 20 ng/mL) [23] = experiment: as above; conditions: 72 h
NKL (IL-2 2.5 ng/mL) [24] = experiment: as above; conditions: 72 h
SNK-6 (IL-2 2.5 ng/mL) [25] = experiment: as above; conditions: 72 h
[26] = tested on: normal primary NK cells, pool 3 (3 donors) (IL-2 2.5 ng/mL); experiment: as above; conditions: 72 h
[27] = tested on: normal primary NK cells, pool 1 (3 donors), resting (IL-2 0 ng/mL); experiment: as above; conditions: 72 h
[28] = tested on: normal primary NK cells, pool 1 (3 donors) (IL-2 2.5 ng/mL); experiment: as above; conditions: 72 h

CC(=O)[C@]1(O)Cc2c(O)c3c(c(O)c2[C@@H](O[C@H]2C[C@H](N)[C@H](O)[C@H](C)O2)C1)C(=O)c1ccccc1C3=O [Idarubicin] (max concentration tested 1000 nM)
percent inhibition of viability [%]
Conditions	0.1 nM	1 nM	10 nM	100 nM	1000 nM
DERL-7 (IL-2 2.5 ng/mL) [20]	5.69	7.69	65.2	100	101
IMC-1 (IL-2 20 ng/mL) [23]	-7.47	-4.02	65.8	101	101
KAI3 (IL-2 2.5 ng/mL) [17]	12.1	20.2	75.2	88.7	108
KHYG-1 (IL-2 2.5 ng/mL) [19]	-9.43	1.7	74.3	108	110
NK-92 (IL-2 2.5 ng/mL) [21]	0.18	7.35	69.9	108	109
NK-YS (IL-2 2.5 ng/mL) [22]	-9.65	-1.39	71.5	80.4	107
NKL (IL-2 2.5 ng/mL) [24]	5.06	19.9	101	107	110
SNK-6 (IL-2 2.5 ng/mL) [25]	-5.01	-15.7	84.5	96.8	94.4
YT (IL-2 2.5 ng/mL) [18]	-10.7	-9.01	-4.8	100	110
[1]	1.32	-3	56.3	97.4	101
[16]	6.51	-1.19	51.6	94.8	97.9
[26]	4.34	4.31	46.5	98	100
[27]	11	17.1	73.4	91.3	94
[28]	-4.61	-3.53	21.8	96.4	98.4

Conditions	drug sensitivity score
DERL-7 (IL-2 2.5 ng/mL) [6]	26.1
IMC-1 (IL-2 20 ng/mL) [9]	25.6
KAI3 (IL-2 2.5 ng/mL) [3]	28.5
KHYG-1 (IL-2 2.5 ng/mL) [5]	26.5
NK-92 (IL-2 2.5 ng/mL) [7]	26.8
NK-YS (IL-2 2.5 ng/mL) [8]	26.4
NKL (IL-2 2.5 ng/mL) [10]	33.7
SNK-6 (IL-2 2.5 ng/mL) [11]	27.1
YT (IL-2 2.5 ng/mL) [4]	17.6
[2]	23.9
[12]	23.2
[13]	27.5
[14]	20.9
[15]	24.8

CC[C@H](CO)Nc1nc(NCc2ccccc2)c2ncn(C(C)C)c2n1 [Seliciclib] (max concentration tested 10000 nM)
percent inhibition of viability [%]
Conditions	1 nM	10 nM	100 nM	1000 nM	10000 nM
DERL-7 (IL-2 2.5 ng/mL) [20]	-1.96	7.05	6.82	0.8	33.1
IMC-1 (IL-2 20 ng/mL) [23]	-6.54	-8.7	-1.13	2.41	13.2
KAI3 (IL-2 2.5 ng/mL) [17]	-1.01	-9.53	-1.56	6.38	67.1
KHYG-1 (IL-2 2.5 ng/mL) [19]	4.31	-8.69	-4.34	1.22	18.6
NK-92 (IL-2 2.5 ng/mL) [21]	-2.72	-1.58	-0.03	23.2	39.9
NK-YS (IL-2 2.5 ng/mL) [22]	8.26	-2	-1.62	7.11	38.7
NKL (IL-2 2.5 ng/mL) [24]	-8.83	-15.7	-16.8	10.3	41.6
SNK-6 (IL-2 2.5 ng/mL) [25]	-14.8	-13.5	-3.42	-23.2	23.9
YT (IL-2 2.5 ng/mL) [18]	2.72	-5.9	-1.61	9.31	53.2
[1]	-5.19	-1.17	-5.63	3.89	27.1
[16]	-12.7	-4.83	5.97	1.18	33.5
[26]	0.36	1.61	11.3	-0.47	17.9
[27]	-1.46	-6.05	15.1	7.69	9.97
[28]	-1.6	-3.91	11.5	8.66	32.8

Conditions	drug sensitivity score
DERL-7 (IL-2 2.5 ng/mL) [6]	1.62
IMC-1 (IL-2 20 ng/mL) [9]	0.28
KAI3 (IL-2 2.5 ng/mL) [3]	4.72
KHYG-1 (IL-2 2.5 ng/mL) [5]	0.62
NK-92 (IL-2 2.5 ng/mL) [7]	4.81
NK-YS (IL-2 2.5 ng/mL) [8]	3.07
NKL (IL-2 2.5 ng/mL) [10]	3.69
SNK-6 (IL-2 2.5 ng/mL) [11]	0.43
YT (IL-2 2.5 ng/mL) [4]	4.39
[2]	1.7
[12]	0.41
[13]	2.43
[14]	2.2
[15]	1.71

Nc1nc(NC2CC2)cc(-c2cccc(Cl)c2Cl)n1 [TH588] (max concentration tested 25000 nM)
percent inhibition of viability [%]
Conditions	2.5 nM	25 nM	250 nM	2500 nM	25000 nM
DERL-7 (IL-2 2.5 ng/mL) [20]	-0.31	1.28	1.11	0.06	97.7
IMC-1 (IL-2 20 ng/mL) [23]	-9.26	1.24	2.13	7.29	96.8
KAI3 (IL-2 2.5 ng/mL) [17]	0.95	-6.22	2.89	42	64.7
KHYG-1 (IL-2 2.5 ng/mL) [19]	-2.9	-3.16	5.7	58.7	107
NK-92 (IL-2 2.5 ng/mL) [21]	-1.92	-6.94	2.79	72.5	101
NK-YS (IL-2 2.5 ng/mL) [22]	1.83	-0.35	11.3	66.7	80.4
NKL (IL-2 2.5 ng/mL) [24]	-9.98	-13.7	2.66	55.4	98.6
SNK-6 (IL-2 2.5 ng/mL) [25]	0.31	-17.3	9.99	71.7	81.9
YT (IL-2 2.5 ng/mL) [18]	-5.04	-2.09	4.62	56.5	101
[1]	-9.36	-5.78	-3.43	4.8	54.4
[16]	-12	6.63	10.1	10.4	25.7
[26]	-2.82	4	7.93	2.77	13.5
[27]	-2.99	16.5	4.87	14.2	27.3
[28]	-0.99	16	3.84	5.63	25.9

Conditions	drug sensitivity score
DERL-7 (IL-2 2.5 ng/mL) [6]	5.47
IMC-1 (IL-2 20 ng/mL) [9]	6.5
KAI3 (IL-2 2.5 ng/mL) [3]	8.66
KHYG-1 (IL-2 2.5 ng/mL) [5]	12.6
NK-92 (IL-2 2.5 ng/mL) [7]	14.2
NK-YS (IL-2 2.5 ng/mL) [8]	13.8
NKL (IL-2 2.5 ng/mL) [10]	12.1
SNK-6 (IL-2 2.5 ng/mL) [11]	14.5
YT (IL-2 2.5 ng/mL) [4]	12.3
[2]	2.06
[12]	0.02
[13]	2.68
[14]	1.81
[15]	3.67
